Tests used:
[1] = test system: Human osteosarcoma (Saos-2) cells; experiment: MTT viability assay, Saos-2; format: cell-based; settings: 10 nm etoposide, 72 hours
Method: Human osteosarcoma (Saos-2) cells were purchased from the American Tissue Culture Collection and maintained in McCoy's 5A medium containing 1.5 mM L-glutamine and 2200 mg/L sodium bicarbonate. Media was supplemented with 1% penicillin, streptomycin and 15% foetal bovine serum (FBS).
(§1) Stock solutions of conditioned media were prepared by dissolving glass particles (from Example 1-3) in complete McCoy's 5A medium to treat Saos-2 cells and Clonetics OGM Osteoblast complete growth media to treat osteoblasts.
(§2) Stock solutions were prepared at a concentration of 10 mg/ml and left to incubate in a shaker incubator at 250 rpm at 37° C. for 24 hours. Following the 24 hour incubation period, stock solutions were filtered using 0.2 micron syringe filter. 3 ml samples were excluded to record stock solution pH values following glass dissolution.
(§3) Cell cytotoxicity was analysed using MTT viability assay (Thermo Fisher), where 5000 cells per well of both Saos-2 and NHOst cells were cultured using conditioned media containing 10 mg/ml respective glass compositions (Examples 1-3), for a period of 72 hours. […] Metabolically active cells reduce MTT to formazan and after formazan extraction the optical density was measured using a spectrophotometer (at 570 nm). […]

[2] = test system: Human osteoblasts (NHOst); experiment: MTT viability assay, NHOst; format: cell-based; settings: 10 nm etoposide, 72 hours
Method: Human osteoblasts (NHOst) were purchased from Lonza and cultured in Clonetics OGM Osteoblast growth media supplemented with 10% FBS, 1% L-glutamine and 1% penicillin, streptomycin. Both cell lines were maintained at 37° C. in a humidified atmosphere of 5% CO2/95% air.
as §1, §2, §3

COc1cc([C@@H]2c3cc4c(cc3[C@@H](O[C@@H]3O[C@@H]5CO[C@@H](C)O[C@H]5[C@H](O)[C@H]3O)[C@H]3COC(=O)[C@H]23)OCO4)cc(OC)c1O [etoposide, Etoposide]
Saos-2 cell death, positive control [1]: inducer of cell death (p<0.0001) | NHOst cell death, positive control [2]: inducer of cell death (p<0.0001)
